Like-named read-outs stand apart in the source and are kept apart here.
How the values were obtained:
PfCDPK1 = PfCDPK1 (Plasmodium falciparum (isolate 3D7), UniProt P62344); experiment: biochemical; settings: for inhibition at 3 µM: read-out: PfCDPK1 (% inhibition @ 3 uM)
PfCDPK4 = PfCDPK4 (Plasmodium falciparum (isolate 3D7), UniProt Q8IBS5); experiment: biochemical; settings: for inhibition at 3 µM: read-out: PfCDPK4 (% inhibition @ 3 uM)
[1] = tested on: human promyelocytic leukemia (HL-60); experiment: Growth inhibition of human cell line HL-60
[2] = tested on: human lymphocyte (CRL8155); experiment: Growth inhibition of human cell line CRL8155
CpCDPK1 = CpCDPK1 (Cryptosporidium parvum (strain Iowa II), UniProt A3FQ16); experiment: biochemical; assay type: biochemical; settings: read-out: IC50 (μM) CpCDPK1
CpCDPK1, sequence (A3FQ16 1-538): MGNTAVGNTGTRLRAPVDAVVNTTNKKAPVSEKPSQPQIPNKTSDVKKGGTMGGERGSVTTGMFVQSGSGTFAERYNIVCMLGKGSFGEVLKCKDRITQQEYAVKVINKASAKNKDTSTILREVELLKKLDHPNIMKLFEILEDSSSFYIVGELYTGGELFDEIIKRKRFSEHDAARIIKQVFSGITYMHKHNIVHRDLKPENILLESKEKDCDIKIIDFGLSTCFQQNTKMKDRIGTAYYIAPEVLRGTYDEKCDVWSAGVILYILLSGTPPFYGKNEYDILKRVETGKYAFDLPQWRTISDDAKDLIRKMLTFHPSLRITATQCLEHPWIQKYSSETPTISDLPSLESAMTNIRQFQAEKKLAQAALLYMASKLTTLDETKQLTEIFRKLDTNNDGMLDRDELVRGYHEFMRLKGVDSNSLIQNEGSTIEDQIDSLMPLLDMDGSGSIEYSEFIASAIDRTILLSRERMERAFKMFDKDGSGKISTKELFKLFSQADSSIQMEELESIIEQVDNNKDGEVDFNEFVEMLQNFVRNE

TgCDPK1 = TgCDPK1 (Toxoplasma gondii, UniProt Q9BJF5); assay type: biochemical
TgCDPK1, sequence (Q9BJF5 1-507): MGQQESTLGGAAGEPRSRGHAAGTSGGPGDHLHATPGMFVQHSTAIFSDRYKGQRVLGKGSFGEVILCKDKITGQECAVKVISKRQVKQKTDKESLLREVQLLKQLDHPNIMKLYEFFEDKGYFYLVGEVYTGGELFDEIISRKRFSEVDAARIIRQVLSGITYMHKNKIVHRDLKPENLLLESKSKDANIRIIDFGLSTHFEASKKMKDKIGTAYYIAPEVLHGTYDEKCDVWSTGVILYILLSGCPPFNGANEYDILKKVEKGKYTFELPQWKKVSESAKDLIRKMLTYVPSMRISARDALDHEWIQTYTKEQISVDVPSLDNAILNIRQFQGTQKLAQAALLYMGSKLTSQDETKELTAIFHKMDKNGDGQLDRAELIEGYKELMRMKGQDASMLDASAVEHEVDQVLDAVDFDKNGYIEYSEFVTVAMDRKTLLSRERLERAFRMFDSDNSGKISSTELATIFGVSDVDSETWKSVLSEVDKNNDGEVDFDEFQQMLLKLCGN

Row | SMILES | EC50 (PfCDPK1) [nM] | EC50 (PfCDPK4) [nM] | other results
1 | CC(C)COc1ccc2cc(-c3nn(C(C)(C)C)c4ncnc(N)c34)ccc2c1 [Compound 130] | 2950 | > 3000 | –
2 | Nc1ncnc2c1c(-c1ccc3nccnc3c1)nn2CC1CCNCC1 [Compound 122] | 482 | > 3000 | Cell Toxicity HL60, % at 10 μM [1]: <30% at 10 μM; Cell Toxicity HL60, % at 30 μM ([1]; 30 μM): <30% at 30 μM; Cell Toxicity CRL8155, % at 10 μM [2]: <30% at 10 μM; Cell Toxicity CRL8155, % at 30 μM ([2]; 30 μM): <30% at 30 μM
3 | CC(C)n1nc(-c2ccc3cc(OCc4ccccc4Cl)ccc3c2)c2c(N)ncnc21 [Compound 46, 3-(6-(2-chlorobenzyloxy)naphthalen-2-yl)-1-isopropyl-1H-pyrazolo[3,4-d]pyrimidin-4-amine] | 477 | > 3000 | Cell Toxicity HL60, % at 10 μM [1]: <30% at 10 μM; Cell Toxicity CRL8155, % at 10 μM [2]: <30% at 10 μM
4 | NCCCCCC(=O)Nc1nc2ccc(C(=O)c3ccccc3)cc2[nH]1 [Compound 105] | – | – | Cell Toxicity HL60, % at 10 μM [1]: <30% at 10 μM; Cell Toxicity CRL8155, % at 10 μM [2]: <30% at 10 μM
5 | Nc1ncnc2c1c(I)nn2CC1CCNCC1 [Compound 98] | – | – | Cell Toxicity HL60, % at 10 μM [1]: <30% at 10 μM; Cell Toxicity CRL8155, % at 10 μM [2]: <30% at 10 μM
6 | CC(C)n1nc(-c2ccc3cc(OCc4cc(F)cc(Cl)c4)ccc3c2)c2c(N)ncnc21 [Compound 52, 3-(6-(3-chloro-5-fluorobenzyloxy)naphthalen-2-yl)-1-isopropyl-1H-pyrazolo[3,4-d]pyrimidin-4-amine] | 1070 | 1230 | –
7 | CC(C)n1nc(-c2ccc3cc(OCc4ccc(Cl)cc4)ccc3c2)c2c(N)ncnc21 [Compound 56, 3-(6-(4-chlorobenzyloxy)naphthalen-2-yl)-1-isopropyl-1H-pyrazolo[3,4-d]pyrimidin-4-amine] | 1140 | 888 | IC50 (CpCDPK1; Table 8): 0.105 µM
8 | N#Cc1cccc(-c2ccc(-c3nn(CC4CCNCC4)c4ncnc(N)c34)cc2)c1 [Compound 74, 4′-(4-amino-1-(piperidin-4-ylmethyl)-1H-pyrazolo[3,4-d]pyrimidin-3-yl)biphenyl-3-carbonitrile] | 347 | 1010 | –
9 | Cc1ccc(C(F)(F)F)cc1COc1ccc2cc(-c3nn(C(C)C)c4ncnc(N)c34)ccc2c1 [Compound 50, 1-isopropyl-3-(6-(2-methyl-5-(trifluoromethyl)benzyloxy)naphthalen-2-yl)-1H-pyrazolo[3,4-d]pyrimidin-4-amine] | 2090 | > 3000 | –
10 | CC(C)n1nc(-c2ccc3cc(OCc4ccc(C(C)(C)C)cc4)ccc3c2)c2c(N)ncnc21 [Compound 54, 3-(6-(4-tert-butylbenzyloxy)naphthalen-2-yl)-1-isopropyl-1H-pyrazolo[3,4-d]pyrimidin-4-amine] | 47.8 | 438 | –
11 | CC(C)n1nc(-c2ccc3cc(OCc4cccc(Cl)c4)ccc3c2)c2c(N)ncnc21 [Compound 47, 3-(6-(3-chlorobenzyloxy)naphthalen-2-yl)-1-isopropyl-1H-pyrazolo[3,4-d]pyrimidin-4-amine] | 1290 | 1430 | IC50 (CpCDPK1; Table 8): 0.272 µM
12 | CC(C)n1nc(-c2cccc(Cc3ccccc3)c2)c2c(N)ncnc21 [Compound 7y, 3-(3-benzylphenyl)-1-isopropyl-1H-pyrazolo[3,4-d]pyrimidin-4-amine] | – | – | inhibition of TgCDPK1 (in words) (TgCDPK1): neither kinase is inhibited; IC50 (TgCDPK1; read-out: IC50 (μM) TgCDPK1): 0.322 µM
13 | O=C(NCCO)Nc1nc2ccc(C(=O)c3ccccc3)cc2[nH]1 [Compound 90] | – | – | Cell Toxicity HL60, % at 10 μM [1]: <30% at 10 μM; Cell Toxicity CRL8155, % at 10 μM [2]: <30% at 10 μM
14 | O=C(CCCC1CCNCC1)Nc1nc2ccc(C(=O)c3ccccc3)cc2[nH]1 [Compound 115] | – | – | Cell Toxicity HL60, % at 10 μM [1]: <30% at 10 μM; Cell Toxicity CRL8155, % at 10 μM [2]: <30% at 10 μM
15 | CC(C)n1nc(-c2cccc(OCc3ccccc3)c2)c2c(N)ncnc21 [Compound 7aa, 3-(3-(benzyloxy)phenyl)-1-isopropyl-1H-pyrazolo[3,4-d]pyrimidin-4-amine] | – | – | inhibition of TgCDPK1 (in words) (TgCDPK1): neither kinase is inhibited; IC50 (TgCDPK1; read-out: IC50 (μM) TgCDPK1): 1.06 µM
16 | CC(Oc1ccc2cc(-c3nn(C(C)C)c4ncnc(N)c34)ccc2c1)c1ccccc1 (stereo not drawn) [Compound 53, 1-isopropyl-3-(6-(1-phenylethoxy)naphthalen-2-yl)-1H-pyrazolo[3,4-d]pyrimidin-4-amine] | 532 | 1640 | –
17 | CC(C)(C)c1nc(-c2cnc3ccccc3c2)c2c(N)nccn12 [Compound 72, 3-tert-butyl-1-(quinolin-3-yl)imidazo[1,5-a]pyrazin-8-amine] | 948 | 241 | Cell Toxicity HL60, % at 10 μM [1]: <30% at 10 μM; Cell Toxicity CRL8155, % at 10 μM [2]: <30% at 10 μM
18 | CC(C)(C)n1nc(-c2ccc3oc(-c4ccccc4)nc3c2)c2c(N)ncnc21 [Compound 131] | 266 | > 3000 | –
19 | Nc1ncnc2c1c(-c1ccc3cc(OCc4ccc(Cl)cc4)ccc3c1)nn2CC1CCNCC1 [Compound 39, 3-(6-(4-chlorobenzyloxy)naphthalen-2-yl)-1-(piperidin-4-ylmethyl)-1H-pyrazolo[3,4-d]pyrimidin-4-amine] | 21.1 | 9.2 | –

Row | SMILES | EC50 (PfCDPK1) [nM] | EC50 (PfCDPK4) [nM] | other results
20 | CC(C)n1nc(-c2ccc3cc(OCc4ccncc4)ccc3c2)c2c(N)ncnc21 [Compound 55, 1-isopropyl-3-(6-(pyridin-4-ylmethoxy)naphthalen-2-yl)-1H-pyrazolo[3,4-d]pyrimidin-4-amine] | 216 | 175 | –
21 | Nc1ncnc2c1c(Cc1cccc3ccccc13)nn2C1CCCCC1 [Compound 5f, 1-cyclohexyl-3-(naphthalen-1-ylmethyl)-1H-pyrazolo[3,4-d]pyrimidin-4-amine] | – | – | IC50 (TgCDPK1; read-out: IC50 (μM) TgCDPK1): 0.946 µM; IC50 (TgCDPK1; read-out: TgCDPK1 IC50): 1 µM
22 | Cn1ccc2cc(-c3nn(CC4CCNCC4)c4ncnc(N)c34)ccc21 [Compound 57, 3-(1-methyl-1H-indol-5-yl)-1-(piperidin-4-ylmethyl)-1H-pyrazolo[3,4-d]pyrimidin-4-amine] | 705 | 243 | –
23 | Cc1ccccc1COc1ccc2cc(-c3nn(C(C)C)c4ncnc(N)c34)ccc2c1 [Compound 49, 1-isopropyl-3-(6-(2-methylbenzyloxy)naphthalen-2-yl)-1H-pyrazolo[3,4-d]pyrimidin-4-amine] | 688 | 2350 | –
24 | Cc1cccc(-c2nn(C(C)C)c3ncnc(N)c23)c1 [Compound 7g, 1-isopropyl-3-m-tolyl-1H-pyrazolo[3,4-d]pyrimidin-4-amine] | – | – | inhibition at 3 µM (PfCDPK1): 72%; inhibition at 3 µM (PfCDPK4): 64%; IC50 (CpCDPK1): 0.114 µM
25 | Cc1cccc2[nH]c(-c3nn(C(C)C)c4ncnc(N)c34)cc12 [Compound 25, 1-isopropyl-3-(4-methyl-1H-indol-2-yl)-1H-pyrazolo[3,4-d]pyrimidin-4-amine] | – | 579 | Cell Toxicity HL60, % at 10 μM [1]: 47% toxicity at; Cell Toxicity CRL8155, % at 10 μM [2]: 38% toxicity at
26 | CC(C)(C)n1nc(-c2ccc(-c3nn(C(C)(C)C)c4ncnc(N)c34)cc2)c2c(N)ncnc21 [Compound 141] | 1470 | 2030 | inhibition at 3 µM (PfCDPK1): 92%; inhibition at 3 µM (PfCDPK4): 55%
27 | CC(C)COc1ccc2cc(-c3nn(C(C)C)c4ncnc(N)c34)ccc2c1 [Compound 43, 3-(6-isobutoxynaphthalen-2-yl)-1-isopropyl-1H-pyrazolo[3,4-d]pyrimidin-4-amine] | 278 | 1200 | –
28 | CN(C)c1ccc2cc(-c3nn(CC4CCNCC4)c4ncnc(N)c34)ccc2n1 [Compound 68, 6-(4-amino-1-(piperidin-4-ylmethyl)-1H-pyrazolo[3,4-d]pyrimidin-3-yl)-N,N-dimethylquinolin-2-amine] | – | – | IC50 (CpCDPK1; Table 8): > 3 µM
29 | Nc1ncnc2c1c(-c1ccc(-c3ccccc3)cc1)nn2CC1CCNCC1 [Compound 100] | 74.9 | 908 | –
30 | CC(C)n1nc(-c2ccc3cc(OC(=O)c4cccc(Cl)c4)ccc3c2)c2c(N)ncnc21 [Compound 85] | 229 | 479 | –
31 | COC(=O)Nc1nc2ccc(C(O)c3ccccc3)cc2[nH]1 (stereo not drawn) [Compound 82] | > 3000 | > 3000 | –
32 | CC(C)n1nc(-c2ccc3c(ccn3C)c2)c2c(N)ncnc21 [Compound 20, 1-isopropyl-3-(1-methyl-1H-indol-5-yl)-1H-pyrazolo[3,4-d]pyrimidin-4-amine] | 309 | 231 | Cell Toxicity HL60, % at 10 μM [1]: <30% at 10 μM; IC50 (CpCDPK1; Table 8): 0.003 µM; Cell Toxicity CRL8155, % at 10 μM [2]: <30% at 10 μM
33 | COc1ccc(-c2nn(C(C)C)c3ncnc(N)c23)cc1C [Compound 7m, 1-isopropyl-3-(4-methoxy-3-methylphenyl)-1H-pyrazolo[3,4-d]pyrimidin-4-amine] | – | – | IC50 (CpCDPK1): 0.017 µM
34 | COc1ccc(-c2nn(C(C)C)c3ncnc(N)c23)cc1 [Compound 7j, 1-isopropyl-3-(4-methoxyphenyl)-1H-pyrazolo[3,4-d]pyrimidin-4-amine] | – | – | inhibition at 3 µM (PfCDPK1): 87%; inhibition at 3 µM (PfCDPK4): 30%; IC50 (CpCDPK1): 0.41 µM
35 | CC(C)n1nc(-c2ccc3cc(OCc4ccc(CC(F)(F)F)c(Cl)c4)ccc3c2)c2c(N)ncnc21 [Compound 51, 3-(6-(3-chloro-4-(2,2,2-trifluorethyl)benzyloxy)naphthalen-2-yl)-1-isopropyl-1H-pyrazolo[3,4-d]pyrimidin-4-amine] | 1600 | 260 | –
36 | Cc1ccc(C)c(COc2ccc3cc(-c4nn(C(C)C)c5ncnc(N)c45)ccc3c2)c1 [Compound 48, 3-(6-(2,5-dimethylbenzyloxy)naphthalen-2-yl)-1-isopropyl-1H-pyrazolo[3,4-d]pyrimidin-4-amine] | 2280 | > 3000 | –
37 | CC(C)n1nc(-c2cccc(-c3ccccc3)c2)c2c(N)ncnc21 [Compound 7z, 3-(biphenyl-3-yl)-1-isopropyl-1H-pyrazolo[3,4-d]pyrimidin-4-amine] | – | – | inhibition of TgCDPK1 (in words) (TgCDPK1): neither kinase is inhibited; IC50 (TgCDPK1; read-out: IC50 (μM) TgCDPK1): 2.23 µM
